# EPA's ToxValDB 9.5 (doi:10.2903/j.efsa.2007.107r)
# Columns and labels:
# [1] = test system: Apis mellifera; conditions: acute; oral; unspecified; mortality
# [2] = test system: Colinus virginianus
# [3] = test system: Daphnia magna; conditions: chronic/long-term; duration: 21 days
# [4] = test system: Oncorhynchus mykiss
# [5] = test system: Oryctolagus sp.; conditions: developmental; development
# [6] = test system: Rattus norvegicus
# [7] = test system: Tagia sp.; conditions: acute; duration: 14 days; mortality
# [8] = test system: Typhlodromus pyri; assay: LR50; higher = less toxic; conditions: acute; duration: 7 days; reproduction
smiles,measurement,setting,value
CC(C)OC(=O)N[C@H](C(=O)N[C@H](C)c1nc2ccc(F)cc2s1)C(C)C [Benthiavalicarb-isopropyl],LD50,[1],> 100 µg/piece
same,LC50,"[2]; acute, oral, diet, mortality",> 937 mg/kg-day
same,LD50,"[2]; acute, oral, mortality",> 2000 mg/kg
same,NOEL,"[2]; reproduction developmental, duration: 24 weeks",105 mg/kg-day
same,NOEC,[3],3 mg/L
same,LC50,"[4]; acute, duration: 96 hours, mortality",> 10 µg/mL
same,NOEC,"[4]; chronic/long-term, duration: 28 days",1 mg/L
same,NOAEL,[5],20 mg/kg-day
same,LD50,"[6]; acute, oral, mortality",> 5000 mg/kg
same,NOAEL,"[6]; chronic, duration: 2 years, clinical chemistry",9.9 mg/kg-day
same,NOAEL,"[6]; reproduction developmental, organ weight",10 mg/kg-day
same,LC50,[7],> 500 mg/kg
same,LR50,[8],290 g/ha
